In patent US9556165B2 (priority 2012, dated 2017):
Values after ≈ are worked out from the molar mass of the structure shown. Read-outs that look alike come from different tables or passages of the source.

Columns and labels:
Assay type in all cases: cell-based
A. baumannii ATCC15308 = assay: MIC determination, broth microdilution (CLSI); settings: for MIC: Acinetobacter baumannii, ATCC15308, strain 9
S. pneumoniae 113 = assay: MIC determination, broth microdilution (CLSI); settings: broth microdilution; for MIC: Streptococcus pneumoniae, 113, strain 13, read-out: MIC strain 13 (S. pneumoniae 113)
E. cloacae 34654 = assay: MIC determination, broth microdilution (CLSI); settings: for MIC: Enterobacter cloacae, 34654, strain 3
S. maltophilia ICB7569 = assay: MIC determination, broth microdilution (CLSI); settings: strain 10
[1] = tested on: P. aeruginosa 2297-con (AmpC derepressed); assay: MIC determination, broth microdilution (CLSI); settings: for MIC: Pseudomonas aeruginosa, read-out: strain 8 MIC, strain 8
P. aeruginosa PAO1 = assay: MIC determination, broth microdilution (CLSI); settings: for MIC: Pseudomonas aeruginosa, PAO1, strain 6
E. coli J62 = assay: MIC determination, broth microdilution (CLSI); settings: broth microdilution; for MIC: Escherichia coli, J62, strain 17, read-out: MIC strain 17 (E. coli J62)
Bacteria = assay: MIC determination in combination with β-lactamase inhibitors (constant 4 μg/mL)
C. freundii K21/3034 = assay: MIC determination, broth microdilution (CLSI); settings: for MIC: Citrobacter freundii, K21/3034, strain 4
H. influenzae ATCC 49247 = assay: MIC determination, broth microdilution (CLSI); settings: broth microdilution; for MIC: Haemophilus influenzae, ATCC49247, strain 12, read-out: MIC strain 12 (H. influenzae ATCC 49247)
[2] = tested on: P. aeruginosa 2297 (AmpC wt); assay: MIC determination, broth microdilution (CLSI); settings: for MIC: Pseudomonas aeruginosa, strain 7
K. pneumoniae 60 = assay: MIC determination, broth microdilution (CLSI); settings: for MIC: Klebsiella pneumoniae, 60, strain 2
E. coli J62-TEM-3 = assay: MIC determination, broth microdilution (CLSI); settings: broth microdilution; for MIC: Escherichia coli, J62TEM3, read-out: MIC strain 18 (E. coli J62-TEM-3), strain 18
M. morganii 126/3048 = assay: MIC determination, broth microdilution (CLSI); settings: for MIC: Morganella morganii, 126/3048, strain 5
E. coli ATCC25922 = assay: MIC determination, broth microdilution (CLSI); settings: for MIC: Escherichia coli, ATCC25922, strain 1
S. aureus 133 = assay: MIC determination, broth microdilution (CLSI)
C. perfringens DSM756 = assay: microbe, parasite or virus in culture; settings: Clostridium perfringens, DSM756, read-out: MIC strain 16 (C. perfringens DSM756), strain 16; broth microdilution
B. fragilis 6688 = assay: MIC determination, broth microdilution (CLSI); settings: Bacteroides fragilis, 6688, strain 15; broth microdilution; read-out: MIC strain 15 (B. fragilis 6688)
[3] = Staphylococcus aureus, 133, strain 11, read-out: strain 11 MIC
[4] = Staphylococcus aureus, 133, strain 14, broth microdilution, read-out: MIC strain 14 (S. aureus 133)

SMILES	MIC strain 19 (E. coli J62-TEM-3 + 4 μg/mL clavulanic acid) (Bacteria) [µg/mL]	MIC strain 20 (E. coli J62-TEM-3 + 4 μg/mL sulbactam) (Bacteria) [µg/mL]	MIC strain 21 (E. coli J62-TEM-3 + 4 μg/mL tazobactam) (Bacteria) [µg/mL]	MIC (A. baumannii ATCC15308) [µg/mL]	MIC (S. pneumoniae 113) [µg/mL]	MIC (C. perfringens DSM756) [µg/mL]	MIC (E. cloacae 34654) [µg/mL]	MIC (B. fragilis 6688) [µg/mL]	MIC (P. aeruginosa PAO1) [µg/mL]	MIC (E. coli J62) [µg/mL]	MIC (C. freundii K21/3034) [µg/mL]	MIC (H. influenzae ATCC 49247) [µg/mL]	MIC (K. pneumoniae 60) [µg/mL]	MIC (E. coli J62-TEM-3) [µg/mL]	MIC (M. morganii 126/3048) [µg/mL]	MIC (E. coli ATCC25922) [µg/mL]	MIC (S. aureus 133; [3]) [µg/mL]	MIC [2] [µg/mL]	MIC (S. aureus 133; [4]) [µg/mL]	further results
CC1(C)[C@H](NC(=O)/C(=N\OC(COc2ccc(C(=N)NCCN)cc2)C(=O)O)c2csc(N)n2)C(=O)N1OS(=O)(=O)O (mixture of isomers) [Example 44B, (2R and 2S)-3-{4-[N-(2-Aminoethyl)carbamimidoyl]phenoxy}-2-({[(1Z)-1-(2-amino-1,3-thiazol-4-yl)-2-{[(3S)-2,2-dimethyl-4-oxo-1-(sulfooxy)azetidin-3-yl]amino}-2-oxoethylidene]amino}oxy)propanoic acid]	2	2	4																	strain 9 MIC (A. baumannii ATCC15308; strain 9): 8 µg/mL; MIC strain 13 (S. pneumoniae 113) (S. pneumoniae 113; strain 13): 4 µg/mL; strain 3 MIC (E. cloacae 34654; strain 3): 4 µg/mL; strain 10 MIC (S. maltophilia ICB7569): 16 µg/mL; strain 8 MIC ([1]; strain 8): 8 µg/mL; strain 6 MIC (P. aeruginosa PAO1; strain 6): 8 µg/mL; MIC strain 17 (E. coli J62) (E. coli J62; strain 17): 2 µg/mL; strain 4 MIC (C. freundii K21/3034; strain 4): 2 µg/mL; MIC strain 12 (H. influenzae ATCC 49247) (H. influenzae ATCC 49247; strain 12): 0.5 µg/mL; strain 7 MIC [2]: 16 µg/mL; strain 2 MIC (K. pneumoniae 60; strain 2): 1 µg/mL; MIC strain 18 (E. coli J62-TEM-3) (E. coli J62-TEM-3; strain 18): 4 µg/mL; strain 5 MIC (M. morganii 126/3048; strain 5): 4 µg/mL; strain 1 MIC (E. coli ATCC25922; strain 1): 2 µg/mL; strain 11 MIC (S. aureus 133; strain 11): ≦0.063 mg/L
CC1(C)[C@H](NC(=O)/C(=N\OCC(Oc2ccc(C(=N)N)cc2)C(=O)O)c2csc(N)n2)C(=O)N1OS(=O)(=O)O (single isomer, unassigned) [Example 87A]	1	1	2	8 (≈ 13.7 µM)	0.5 (≈ 0.854 µM)	8 (≈ 13.7 µM)	1 (≈ 1.71 µM)	32 (≈ 54.6 µM)	32 (≈ 54.6 µM)	2 (≈ 3.42 µM)	1 (≈ 1.71 µM)	0.25 (≈ 0.427 µM)	1 (≈ 1.71 µM)	32 (≈ 54.6 µM)	0.25 (≈ 0.427 µM)	1 (≈ 1.71 µM)	≤ 0.063			
C[C@H]1[C@H](NC(=O)/C(=N\OCCOc2ccc(C(=N)N)cc2)c2csc(N)n2)C(=O)N1OS(=O)(=O)O [Example 47, (2Z)-2-(2-Amino-1,3-thiazol-4-yl)-2-{[2-(4-carbamimidoylphenoxy)ethoxy]imino}-N-[(2S,3S)-2-methyl-4-oxo-1-(sulfooxy)azetidin-3-yl]ethanamide]	0.5	0.5	0.5	2 (≈ 3.79 µM)	0.125 (≈ 0.237 µM)	1 (≈ 1.9 µM)	1 (≈ 1.9 µM)	16 (≈ 30.3 µM)	4 (≈ 7.58 µM)	0.5 (≈ 0.948 µM)	0.5 (≈ 0.948 µM)	0.125 (≈ 0.237 µM)	0.5 (≈ 0.948 µM)	32 (≈ 60.7 µM)	2 (≈ 3.79 µM)	0.25 (≈ 0.474 µM)	≤ 0.063	2 (≈ 3.79 µM)	1 (≈ 1.9 µM)	
CC1(C)[C@H](NC(=O)/C(=N\OCCCOc2ccc(C(=N)N)cc2)c2csc(N)n2)C(=O)N1OS(=O)(=O)O [Example 58, (2Z)-2-(2-Amino-1,3-thiazol-4-yl)-2-{[3-(4-carbamimidoylphenoxy)propoxy]imino}-N-[(3S)-2,2-dimethyl-4-oxo-1-(sulfooxy)azetidin-3-yl]ethanamide]	2	2	2	16 (≈ 28.8 µM)	≤ 0.063	4 (≈ 7.2 µM)	4 (≈ 7.2 µM)	4 (≈ 7.2 µM)	16 (≈ 28.8 µM)	4 (≈ 7.2 µM)	1 (≈ 1.8 µM)	0.5 (≈ 0.9 µM)	4 (≈ 7.2 µM)	32 (≈ 57.6 µM)	1 (≈ 1.8 µM)	2 (≈ 3.6 µM)	≤ 0.063	32 (≈ 57.6 µM)	4 (≈ 7.2 µM)	MIC [1]: 16 µg/mL (≈ 28.8 µM)
N=C(N)c1ccc(OCCO/N=C(\C(=O)N[C@@H]2C(=O)N(S(=O)(=O)O)[C@@H]2C(N)=O)c2csc(N)n2)cc1 [Example 66, (2S,3S)-3-{[(2Z)-2-(2-Amino-1,3-thiazol-4-yl)-2-{[2-(4-carbamimidoylphenoxy)-ethoxy]imino}acetyl]amino}-2-carbamoyl-4-oxoazetidine-1-sulfonic acid]	2	2	2	4 (≈ 7.4 µM)	1 (≈ 1.85 µM)	16 (≈ 29.6 µM)	4 (≈ 7.4 µM)	16 (≈ 29.6 µM)	32 (≈ 59.2 µM)	2 (≈ 3.7 µM)	2 (≈ 3.7 µM)	2 (≈ 3.7 µM)	1 (≈ 1.85 µM)	4 (≈ 7.4 µM)	2 (≈ 3.7 µM)	2 (≈ 3.7 µM)	1 (≈ 1.85 µM)	32 (≈ 59.2 µM)		
C[C@H]1[C@H](NC(=O)/C(=N\OCCOc2ccc(C(=N)NCCO)cc2)c2csc(N)n2)C(=O)N1S(=O)(=O)O [Example 69, (2S,3S)-3-({(2Z)-2-(2-Amino-1,3-thiazol-4-yl)-2-[(2-{4-[N-(2-hydroxyethyl)carbamimidoyl]-phenoxy}ethoxy)imino]acetyl}amino)-2-methyl-4-oxoazetidine-1-sulfonic acid]	0.25	0.25	0.25	2 (≈ 3.6 µM)	≤ 0.063	1 (≈ 1.8 µM)	0.25 (≈ 0.45 µM)	1 (≈ 1.8 µM)	4 (≈ 7.2 µM)	0.25 (≈ 0.45 µM)	0.125 (≈ 0.225 µM)	≤ 0.063	0.25 (≈ 0.45 µM)	16 (≈ 28.8 µM)	0.125 (≈ 0.225 µM)	0.125 (≈ 0.225 µM)	≤ 0.063	8 (≈ 14.4 µM)	4 (≈ 7.2 µM)	
CC1(C)[C@H](NC(=O)/C(=N\OCCOc2ccc(C(=N)NCC[N+]3(C)CCCC3)cc2)c2csc(N)n2)C(=O)N1OS(=O)(=O)O.O=C([O-])C(F)(F)F [Example 79, 1-(2-{[{4-[2-({[(1Z)-1-(2-Amino-1,3-thiazol-4-yl)-2-{[(3S)-2,2-dimethyl-4-oxo-1-(sulfo-oxy)azetidin-3-yl]amino}-2-oxoethylidene]amino}oxy)ethoxy]phenyl}(imino)-methyl]amino}ethyl)-1-methylpyrrolidinium chloride]	0.5	0.5	0.5	0.5	≤ 0.063	2	0.5	4	8	0.5	0.25	≤ 0.063	0.5	8	1	0.5	≤ 0.063	8	2	MIC [1]: 4 µg/mL
CC1(C)[C@H](NC(=O)/C(=N\O[C@H](COc2ccc(C(=N)NC(CN)CN)cc2)C(=O)O)c2csc(N)n2)C(=O)N1OS(=O)(=O)O [Example 103, (2R)-2-({[(1Z)-1-(2-Amino-1,3-thiazol-4-yl)-2-{[(3S)-2,2-dimethyl-4-oxo-1-(sulfooxy)-azetidin-3-yl]amino}-2-oxoethylidene]amino}oxy)-3-{4-[N-(1,3-diaminopropan-2-yl)carbamimidoyl]phenoxy}propanoic acid]				32 (≈ 48.7 µM)	4 (≈ 6.08 µM)	32 (≈ 48.7 µM)			16 (≈ 24.3 µM)			0.25 (≈ 0.38 µM)			2 (≈ 3.04 µM)	2 (≈ 3.04 µM)	≤ 0.063			
